# Test results from the Deep4Chem optical property database.
# Experiment: solvent given as SMILES
smiles,measurement,setting,value
F[B-]1(F)Oc2ccc(Br)cc2-c2c3c(c4c([n+]21)CCc1ccccc1-4)CCc1ccccc1-3,absorption maximum,in ClCCl,347 nm
CCn1c2ccccc2c2c(C#N)c3c(ccc4c3cnn4C)nc21,absorption maximum,in CCOC(C)=O,383 nm
CC(C)(C)c1cc2c(c(C(C)(C)C)c1)O[B-](F)(F)[n+]1c-2nc(-c2ccccc2)c2ccccc21,absorption maximum,in Cc1ccccc1,410 nm
CN(C)c1ccc(C#Cc2ccc3c(N(C)C)cc(-c4ccccc4)cc3c2)cc1,absorption maximum,in CC#N,342.13 nm
same,absorption maximum,in CCO,335.73 nm
same,absorption maximum,in ClCCl,341 nm
Cc1ccc(/C(C#N)=C/c2cc(/C=C(\C#N)c3ccc(C)cc3)c(-c3ccc(N(c4ccccc4)c4ccccc4)cc3)cc2-c2ccc(N(c3ccccc3)c3ccccc3)cc2)cc1,absorption maximum,in C1CCCCC1,385 nm
same,absorption maximum,in C1CCOC1,391 nm
same,absorption maximum,in CCCCCC,385 nm
same,absorption maximum,in CCOC(C)=O,393 nm
same,absorption maximum,in Cc1ccccc1,391 nm
same,absorption maximum,in ClC(Cl)Cl,385 nm
same,absorption maximum,in ClCCl,393 nm
COc1ccc(C2=C(C)C3=C(c4c(-c5ccccn5)nc5ccccn45)c4c(C)cc(C)n4[B-](F)(F)[N+]3=C2C)cc1,absorption maximum,in ClCCl,535 nm
c1ccc2c(c1)c1ccccc1n2-c1cc(-c2nc3ccccn3n2)cc(-n2c3ccccc3c3ccccc32)c1,absorption maximum,in Cc1ccccc1,338 nm
CCCC1(CCC)c2cc(-c3ccc(C(C)(C)CC)cc3)ccc2-c2ccc(-c3ccc(C(C)(C)CC)cc3)cc21,absorption maximum,in C1CCCCC1,328 nm
O=C1C2=C3c4ccsc4C=CN3C(=O)C2=C2c3ccsc3C=CN12,absorption maximum,in CN(C)C=O,575 nm
same,absorption maximum,in ClC(Cl)Cl,575 nm
CCCCn1c(-c2ccc(-c3nnc(-c4ccc5ccccc5c4)o3)cc2)nc(-c2ccccc2)c1-c1ccccc1,absorption maximum,in ClCCl,340 nm
Fc1ccc(C#Cc2c(C#Cc3ccc(F)cc3)c(C#Cc3ccc(F)cc3)c(C#Cc3ccc(F)cc3)c(C#Cc3ccc(F)cc3)c2C#Cc2ccc(F)cc2)cc1,absorption maximum,in ClCCl,368 nm
Cc1nc2c(ccc3c2sc(/C=C/c2ccc(N(C)C)cc2)[n+]3C)s1,absorption maximum,in CO,534 nm
same,absorption maximum,in ClC(Cl)Cl,557 nm
CCCCCCc1ccc2c3c(ccc2c1)O[B-](F)(F)[N+](c1ccc([N+]2=Cc4c(ccc5cc(CCCCCC)ccc45)O[B-]2(F)F)cc1)=C3,absorption maximum,in C1CCOC1,425 nm
same,absorption maximum,in CC#N,422 nm
same,absorption maximum,in Cc1ccccc1,436 nm
same,absorption maximum,in ClCCl,430 nm
CC(C)(C)c1ccc2c(c1)c1cc(C(C)(C)C)ccc1n2-c1ccc(C#Cc2ccc(C=C(C#N)C#N)cc2)cc1,absorption maximum,in CC#N,346 nm
same,absorption maximum,in CCCCC,345 nm
same,absorption maximum,in Cc1ccccc1,348 nm
same,absorption maximum,in ClCCl,410 nm
CCCCCCCCOc1cc(/C=C/c2ccncc2)c(OCCCCCCCC)cc1/C=C/c1ccncc1,absorption maximum,in ClCCl,398 nm
CCCCc1ccc(-n2c3c4cc(F)ccc4nnc3c3c2c2nnc4ccc(F)cc4c2n3-c2ccc(CCCC)cc2)cc1,absorption maximum,in Cc1ccccc1,315 nm
CCCCCCc1sc(CCCCCC)c2c3ccsc3c3sccc3c12,absorption maximum,in ClC(Cl)Cl,383 nm
Cc1cc2cc3ccccc3cc2cn1,absorption maximum,in CCO,379.08 nm
C=Cc1cc2ccc(OC)cc2oc1=O,absorption maximum,in CC#N,333 nm
CC1=[N+]2C(=C(c3cccs3)c3ccc(C)n3[B-]2(F)F)C=C1c1cc2n(c1)[B-](F)(F)[N+]1=CC=CC1=C2c1c(C)cc(C)cc1C,absorption maximum,in C1CCCCC1,608.5 nm
same,absorption maximum,in CCOC(C)=O,605 nm
COc1ccc(/C=C/c2cc(/C=C/c3ccc(OC)cc3)nc(/C=C/c3ccccc3)n2)cc1,absorption maximum,in ClCCl,369 nm
CCC1(CC)c2ccccc2-c2c1c1c(c3c2C(CC)(CC)c2cc(N(c4ccccc4)c4ccccc4)ccc2-3)C(CC)(CC)c2ccccc2-1,absorption maximum,in C1CCOC1,356 nm
same,absorption maximum,in CC#N,353 nm
same,absorption maximum,in CC(C)=O,354 nm
same,absorption maximum,in CCCCCC,356 nm
same,absorption maximum,in Cc1ccccc1,360 nm
CCCCN1c2ccccc2Sc2cc(/C=C\c3cc(=O)oc4ccc(C)cc34)ccc21,absorption maximum,in ClC(Cl)Cl,423 nm
Cc1ccc(-c2cccc3ncc(-c4ccccc4)n23)cc1,absorption maximum,in ClCCl,341 nm
O=P1(c2ccccc2)c2cccc3ccc4ccc1n4c23 (stereo unspecified),absorption maximum,in ClCCl,412 nm
N#CC(C#N)=C(c1ccc(N(c2ccccc2)c2ccccc2)cc1)c1ccc(N(c2ccccc2)c2ccccc2)cc1,absorption maximum,in C1CCCCC1,367.21 nm
same,absorption maximum,in CC(C)=O,370.45 nm
same,absorption maximum,in CN(C)C=O,374.03 nm
same,absorption maximum,in Cc1ccccc1,374.03 nm
same,absorption maximum,in ClC(Cl)Cl,381.49 nm
CC1=C(Cc2ccccc2)C(C)=[N+]2C1=C(C)c1c(C)c(-c3csc(N4CCOCC4)n3)c(C)n1[B-]2(F)F,absorption maximum,in C1CCOC1,525 nm
same,absorption maximum,in C1COCCO1,524 nm
same,absorption maximum,in CC#N,517 nm
same,absorption maximum,in CC(C)O,518 nm
same,absorption maximum,in CCO,516 nm
same,absorption maximum,in CCOC(C)=O,523 nm
same,absorption maximum,in CN(C)C=O,526 nm
same,absorption maximum,in CO,514 nm
same,absorption maximum,in CS(C)=O,522 nm
same,absorption maximum,in Cc1ccccc1,527 nm
same,absorption maximum,in ClC(Cl)Cl,523 nm
same,absorption maximum,in ClCCl,522 nm
O=P(c1ccccc1)(c1ccccc1)c1ccc(-n2c(-c3ccccc3P(=O)(c3ccccc3)c3ccccc3)nc3ccccc32)cc1,absorption maximum,in ClCCl,300 nm
COc1ccc(C2=CC(c3ccc(OC)cc3)=[O+][B-](C(C)=O)(C(C)=O)O2)cc1,absorption maximum,in CC#N,410 nm
same,absorption maximum,in ClC(Cl)(Cl)Cl,405 nm
